Reference: patent publication US20240139188A1, “Arylamide Compounds For Treatment And Prevention Of Fungal Infections” (priority 2022, published 2024)
Values after ≈ are worked out from the molar mass of the structure shown. Values joined by “and” are separate entries in the source; they are usually repeats but may differ in a detail not shown here. Equal values may be shown once. Read-outs that look alike come from different tables or passages of the source.

Legend:
A. fumigatus = test: MIC/MEC, CLSI M38-A2; type: cell-based, Aspergillus fumigatus
[1] = test system: A. fumigatus cell membrane potential; test: Membrane potential determination, DiBAC4(3); type: cell-based, Aspergillus fumigatus; settings: CAS 0.125 μg/ml, 30 minutes
Experimental: Membrane potential determination: […] Biotechnol., 2021, 14, 262-276) with modifications. […] After, the germlings were washed with sterile PBS (140 mM NaCl, 2 mM KCl, 10 mM NaHPO4, 1.8 mM KH2PO4, pH 7.4). The fluorescence was analyzed with excitation wavelength of 450-490 nm, and emission wavelength of 525-550 nm on the Observer Z1 fluorescence microscope (Carl Zeiss) using the 100× with Differential interference contrast (DIC) images. Fluorescent images were captured with an AxioCam camera (Carl Zeiss, Inc.) and processed using the Axio Vision software (version 4.8).

A. fumigatus biofilms = test: Biofilm assay (XTT); settings: Aspergillus fumigatus, read-out: inhibition of biofilm formation
Experimental: Biofilm assay: To test the susceptibility of pre-formed A. fumigatus biofilms to
VOR, CAS and to the combination of CAS+BRI and VOR+BRI, a suspension containing 10^6 conidia per mL of the wild-type strain (Δku80 pyrG^+) was prepared in liquid MM and 100 μL of it was inoculated in each well of a 96-well plate. After 24 hours of incubation at 37° C., 50 μL of fresh MM containing CAS, VOR or the combination of VOR and CAS with BRI was added to the biofilm to reach the final concentration as indicated and incubated for a further 12 hours at 37° C. Wells containing untreated conidia were used as a positive control. After, the metabolic activity of the cells was evaluated by adding 50 μL of an aqueous XTT solution (1 mg/mL of XTT and 125 μM of menadione) to each well. The plate was incubated for additional 1 hour at 37° C., centrifuged (2000 rpm, 5 minutes) and 100 μL of the supernatant was transferred to a flat-bottomed 96-well plate. The absorbance was measured at 450 nm on a plate reader (Synergy HTX Multi-Mode Reader- BioTek Instruments). The XTT assay's were performed in six replicates.

C. auris = test: MIC for yeasts, CLSI M27-A3; type: cell-based, Candida auris
C. neoformans [2] = test: MIC for yeasts, CLSI M27-A3; type: cell-based, Cryptococcus neoformans; settings: Cryptococcus neoformans H99; read-out: MIC CAS
[3] = test system: A. fumigatus null mutants; test: Phosphatase and kinase null mutant screening; type: cell-based, Aspergillus fumigatus; also: key: +: sensitivity similar to wild-type; −: more sensitive than the wild-type
Experimental: Phosphatase and kinase null mutant screening: An A. fumigatus phosphatase deletion library encompassing 25 null mutants for phosphatase catalytic subunits (Winkelströter et al., G3 (Bethesda), 2015, 5, 1525-39) was screened for sensitivity to the combination of CAS+BRI. […] In each well a total of 200 μL of liquid MM plus conidia from the different mutants (1×10^4 conidia/mL) was incubated in the presence of BRI (20 μM).

chitin synthase genes = test: Chitin synthase mRNA accumulation (RT-qPCR); settings: wild-type strain, 1 hour exposure; not in the mutant strains
Experimental: RNA-sequencing. cDNA synthesis and RTqPCR: All experiments were carried out in biological triplicates and conidia (10^7) were inoculated in liquid MM and A. fumigatus strains were grown for 16 hours at 37 ° C. and treated or not with different concentrations of BRI, CAS, or BRI+CAS for 1 hour. For total RNA isolation, mycelia were ground in liquid nitrogen and total RNA was extracted using TRIzol (Invitrogen), treated with RQ1 RNase-free DNase I (Promega), and purified using the RNAeasy kit (Qiagen) according to the manufacturer's instructions. RNA was quantified using a NanoDrop and Qubit fluorometer, and analyzed using an Agilent 2100 Bioanalyzer system to assess the integrity of the RNA.
For RT-qPCR, the RNA was reverse transcribed to cDNA using the ImProm-II reverse transcription system (Promega) according to manufacturer's instructions, and the synthesized cDNA was used for real-time analysis using the SYBR green PCR master mix kit (Applied Biosystems) in the ABI 7500 Fast real-time PCR system (Applied Biosystems, Foster City, CA, USA).

C. albicans = test: MIC for yeasts, CLSI M27-A3; type: cell-based, Candida albicans
C. neoformans [4] = test: BRI+CAS against yeasts, colony forming units; settings: CAS 16 μg/ml alone, 48 hours
Experimental: Combination of Brilacidin and caspofungin against yeasts: For measuring the effect of the combination BRI+CAS against yeast fungal pathogens, two methods were used: (i) metabolic activity by XTT-assay and (ii) colony forming units (CFUs). For the first method, C. neoformans, C. albicans, and C. auris 10^4 cells were inoculated in RPMI-1640 supplemented with CAS 0 to 32 μg/ml (for C. neoformans) and 0 to 1 μg/ml (for Candida spp.) or the same concentrations of CAS combined with BRI 0.625 μM (for C. neoformans), BRI 20 μM (for C. albicans), and BRI 10 μM (for C. auris). […] XTT-assays were also used for C. albicans caspofungin resistant strains but with CAS 0.5 μg/ml combined with BRI 5, 10 or 20 μM. The same experimental design was used for the CFUs determination, except that after 48 hours the cells present in the wells were plated on YPD (yeast extract 10g, peptone 20g, dextrose 20g, agar 20 g, water 1000 mL) and the plates were incubated at 30° C. for 24-48 hours for determining the survival percentage.
CrzA:GFP = CrzA:GFP translocation to the nucleus; settings: CAS 0.07 μg/ml, 30 minutes
Experimental: Conidia were germinated in YG medium and grown for 13 hours and then exposed or not to BRI, CAS, and BRI+CAS for 30 minutes.

[5] = test system: A. fumigatus clinical isolates; test: Growth inhibition of clinical isolates by CAS, VOR, BRI and combinations

Compound: CC[C@H](C)C[C@H](C)CCCCCCCCC(=O)N[C@H]1C[C@@H](O)[C@@H](NCCN)NC(=O)[C@@H]2[C@@H](O)CCN2C(=O)[C@H]([C@H](O)CCN)NC(=O)[C@H]([C@H](O)[C@@H](O)c2ccc(O)cc2)NC(=O)[C@@H]2C[C@@H](O)CN2C(=O)[C@H]([C@@H](C)O)NC1=O [CAS, caspofungin]
- MEC of CAS (A. fumigatus; A. fumigatus): 0.2 µg/mL and 0.25 µg/mL
- MEC CAS (A. fumigatus; A. fumigatus CM7555 CAS^R): 16 µg/mL
- MEC CAS (A. fumigatus; A. fumigatus DPL1033 CAS^R): 16 µg/mL
- MEC CAS (A. fumigatus; A. fumigatus MD24053 CAS^R): 16 µg/mL
- MEC CAS (A. fumigatus; A. fumigatus WT): 0.25 µg/mL
- MEC CAS (A. fumigatus; A. fumigatus clinical isolates susceptible to CAS): 0.25 µg/mL
- MEC CAS (A. fumigatus; CAS-resistant clinical strains DPL1033, MD24053, CM7555): 16 µg/mL
- fluorescent germlings (membrane depolarization) [1]: ~25%
- inhibition at 0.25 µg/mL (A. fumigatus biofilms): ~10%
- inhibition at 2 µg/mL (A. fumigatus biofilms): ~10%
- MIC CAS (C. auris; Candida auris 468/2015): 1.0 mg/L (≈ 0.915 µM)
- MIC CAS (C. auris; Candida auris 469/2015): 1.0 mg/L (≈ 0.915 µM)
- MIC CAS (C. auris; Candida auris 470/2015): 1.0 mg/L (≈ 0.915 µM)
- MIC CAS (C. auris; Candida auris 471/2015): 1.0 mg/L (≈ 0.915 µM)
- MIC (C. auris; Candidozyma auris, Candida auris 467/2015, read-out: MIC CAS): 1 mg/L (≈ 0.915 µM)
- MIC (C. neoformans [2]): 32 mg/L (≈ 29.3 µM)
- sensitivity, CAS (0.25 μg/mL) ([3]; Afs35 (wild-type; A1159)): +
- sensitivity, CAS (0.25 μg/mL) ([3]; CEA17 (wild-type; A1160)): +
- sensitivity, CAS (0.25 μg/mL) ([3]; ΔcalA (Afu5g09360)): +
- sensitivity, CAS (0.25 μg/mL) ([3]; ΔcdcA (Afu3g12250)): +
- sensitivity, CAS (0.25 μg/mL) ([3]; ΔdspA (Afu1g13040)): +
- sensitivity, CAS (0.25 μg/mL) ([3]; ΔdspB (Afu1g03540)): +
- sensitivity, CAS (0.25 μg/mL) ([3]; ΔdspD (Afu2g02760)): +
- sensitivity, CAS (0.25 μg/mL) ([3]; ΔltpA (Afu2g01880)): +
- sensitivity, CAS (0.25 μg/mL) ([3]; ΔmpkA): −
- sensitivity, CAS (0.25 μg/mL) ([3]; ΔmpkB): +
- sensitivity, CAS (0.25 μg/mL) ([3]; ΔmpkC): +
- sensitivity, CAS (0.25 μg/mL) ([3]; ΔnemA (Afu1g09460)): +
- sensitivity, CAS (0.25 μg/mL) ([3]; ΔpphA (Afu5g12010)): +
- sensitivity, CAS (0.25 μg/mL) ([3]; ΔppmA (Afu8g04580)): +
- sensitivity, CAS (0.25 μg/mL) ([3]; ΔppsA (Afu5g11690)): +
- sensitivity, CAS (0.25 μg/mL) ([3]; ΔpptA (Afu5g06700)): +
- sensitivity, CAS (0.25 μg/mL) ([3]; ΔppzA (Afu2g03950)): +
- sensitivity, CAS (0.25 μg/mL) ([3]; ΔpsrA (Afu1g04790)): +
- sensitivity, CAS (0.25 μg/mL) ([3]; ΔptcA (Afu1g15800)): +
- sensitivity, CAS (0.25 μg/mL) ([3]; ΔptcB (Afu1g09280)): +
- sensitivity, CAS (0.25 μg/mL) ([3]; ΔptcD (Afu5g13740)): +
- sensitivity, CAS (0.25 μg/mL) ([3]; ΔptcE (Afu2g03890)): +
- sensitivity, CAS (0.25 μg/mL) ([3]; ΔptcF (Afu1g06860)): +
- sensitivity, CAS (0.25 μg/mL) ([3]; ΔptcG (Afu5g13340)): +
- sensitivity, CAS (0.25 μg/mL) ([3]; ΔptcH (Afu4g00720)): +
- sensitivity, CAS (0.25 μg/mL) ([3]; ΔptpB (Afu3g10970)): +
- sensitivity, CAS (0.25 μg/mL) ([3]; ΔptyA (Afu6g06650)): +
- sensitivity, CAS (0.25 μg/mL) ([3]; ΔpypA (Afu4g04710)): +
- sensitivity, CAS (0.25 μg/mL) ([3]; ΔsakA): +
- sensitivity, CAS (0.25 μg/mL) ([3]; ΔsakA, ΔmpkC): +
- sensitivity, CAS (0.25 μg/mL) ([3]; ΔsitA (Afu6g11470)): +
- sensitivity, CAS (0.25 μg/mL) ([3]; ΔyphA (Afu4g07000)): +
- chitin synthase gene expression (chitin synthase genes): induce some of these genes
- MIC (C. albicans; Candida albicans SC5314, read-out: MIC CAS): 0.25 mg/L (≈ 0.229 µM)
- MIC (C. albicans; Candida albicans, read-out: MIC CAS, Candida albicans DPL1006 CAS^R (FKS1 F641L)): 2 mg/L (≈ 1.83 µM)
- MIC (C. albicans; Candida albicans, read-out: MIC CAS, Candida albicans DPL1007 CAS^R (FKS1 F641S)): 4 mg/L (≈ 3.66 µM)
- MIC (C. albicans; Candida albicans, read-out: MIC CAS, Candida albicans DPL1009 CAS^R (FKS1 S645Y)): 4 mg/L (≈ 3.66 µM)
- MIC (C. albicans; Candida albicans, read-out: MIC CAS, Candida albicans DPL1010 CAS^R (FKS1 S645F)): 2 mg/L (≈ 1.83 µM)
- MIC (C. albicans; Candida albicans, read-out: MIC CAS, Candida albicans DPL1011 CAS^R (FKS1 S645F + R1361R/H)): 4 mg/L
- decrease of survival (CFUs) (C. neoformans [4]): about 50%
- germlings with CrzA:GFP in the nuclei (CrzA:GFP): 28.3%
- growth, CAS alone ([5]; CM7555 CAS^R, CAS 0.25 μg/mL): +
- growth, CAS alone ([5]; CM7555 CAS^R, CAS 2 μg/mL): +
- growth, CAS alone ([5]; CM7555 CAS^R, CAS 4 μg/mL): +
- growth, CAS alone ([5]; DPL1033 CAS^R, CAS 0.25 μg/mL): +
- growth, CAS alone ([5]; DPL1033 CAS^R, CAS 2 μg/mL): +
- growth, CAS alone ([5]; DPL1033 CAS^R, CAS 4 μg/mL): +
- growth, CAS alone ([5]; MD24053 CAS^R, CAS 0.25 μg/mL): +
- growth, CAS alone ([5]; MD24053 CAS^R, CAS 2 μg/mL): +
- growth, CAS alone ([5]; MD24053 CAS^R, CAS 4 μg/mL): +
- growth, CAS alone ([5]; WT, CAS 0.25 μg/mL): +
- growth, CAS alone ([5]; WT, CAS 2 μg/mL): +
- growth, CAS alone ([5]; WT, CAS 4 μg/mL): +
